From PMC4890124, “Antimicrobial activity, improved cell selectivity and mode of action of short PMAP-36-derived peptides against bacteria and Candida” (Scientific Reports, 2016) come the findings set out here.

For orientation: MFC means the lowest tested concentration that kills the fungus rather than only halting it.

Common to all, as to test: microbe, parasite or virus in culture
The subject of assay [1] is C. albicans CA276 (clinical isolate). In kind it is cell-based, Candida albicans. The following applies: Candida albicans, three independent experiments; for MIC: CLSI 2-fold microdilution, RPMI-1640, 28 °C for 48 h, visual; for MFC: lowest concentration killing at least 99.9% of initial inoculum, YPD agar, 48 h at 28 °C. The source says:
(§1) The antifungal activities were monitored in RPMI-1640 broth medium by a 2-fold microdilution assay according to the Clinical and Laboratory Standards Institute (CLSI) methods. The Candida albicans CGMCC 2.2086, Candida tropicalis CGMCC 2.1975, and Candida krusei CGMCC 2.1857 fungal strains were purchased from the China General Microbiological Culture Collection Center (CGMCC, Beijing, China). Clinically isolated Candida albicans CA2761 was provided by the 4th Affiliated Hospital of Harbin Medical University. Briefly, fungal strains were cultured on YPD agar plates (1% peptone, 0.5% yeast extract, 1% glucose and 2% agar) at 28 °C to prepare Candida suspensions with a turbidity of a 0.5 McFarland standard. A total of 50 μl inoculum cell suspension diluted in RPMI-1640 broth medium was added to an equal volume of peptide solution to achieve a final peptide concentrations ranging from 0.25 μM to 128 μM in a 96-well plate. Pure broth alone or with inoculum suspensions was used as the negative control or the positive control, respectively. The plate was incubated at 28 °C for 48 h. MIC was considered the lowest concentration at which no fungal growth was visually observed under experimental conditions. […] After 48 h incubation at 28 °C, MFC was defined as the lowest concentration of peptides that killed at least 99.9% of the initial inoculums. Experiments were performed in triplicate with three biological replicates.
For orientation: In broth dilution the organism is exposed to a series of concentrations in liquid medium.

Assay [2] concerns Candida albicans CGMCC 2.2086. Format: cell-based. The following applies: Candida albicans, CGMCC2, three independent experiments; for MIC: CLSI 2-fold microdilution, RPMI-1640, 28 °C for 48 h, visual; for MFC: lowest concentration killing at least 99.9% of initial inoculum, YPD agar, 48 h at 28 °C.
Text: as §1

Assay [3] deals with Candida tropicalis CGMCC 2.1975. In kind it is cell-based. The following applies: Candida tropicalis, CGMCC2, three independent experiments; for MIC: CLSI 2-fold microdilution, RPMI-1640, 28 °C for 48 h, visual; for MFC: lowest concentration killing at least 99.9% of initial inoculum, YPD agar, 48 h at 28 °C.
Text: as §1

Assay [4] deals with Candida krusei CGMCC 2.1857. In kind it is cell-based. The following applies: Pichia kudriavzevii, CGMCC2, three independent experiments; for MIC: CLSI 2-fold microdilution, RPMI-1640, 28 °C for 48 h, visual; for MFC: lowest concentration killing at least 99.9% of initial inoculum, YPD agar, 48 h at 28 °C.
Text: as §1

≈ marks a conversion by molar mass, not a printed value.

As for `C[C@@H]1[C@H](O)[C@@H](C)/C=C/C=C/C=C/C=C/C=C/C=C/C=C/[C@H](O[C@@H]2O[C@H](C)[C@@H](O)[C@H](N)[C@@H]2O)C[C@@H]2O[C@](O)(C[C@@H](O)C[C@@H](O)[C@H](O)CC[C@@H](O)C[C@@H](O)CC(=O)O[C@H]1C)C[C@H](O)[C@H]2C(=O)O` [Amphotericin B, reference compound], the MIC in assay [1] was 0.5 µM (≈ 0.462 µg/mL); in assay [2], 0.25 µM (≈ 0.231 µg/mL); in assay [3], 0.25 µM (≈ 0.231 µg/mL); in assay [4], 1 µM (≈ 0.924 µg/mL). Besides, the MFC in assay [1] is 1 µM (≈ 0.924 µg/mL); in assay [2] it was 0.25 µM (≈ 0.231 µg/mL); in assay [3] it was 1 µM (≈ 0.924 µg/mL); in assay [4], 1 µM (≈ 0.924 µg/mL).
For `OC(Cn1cncn1)(Cn1cncn1)c1ccc(F)cc1F` [Fluconazole, reference compound], the MIC in assay [1] is 2 µM (≈ 0.613 µg/mL); in assay [2] it was 2 µM (≈ 0.613 µg/mL); in assay [3], 0.25 µM (≈ 0.0766 µg/mL); in assay [4], 64 µM (≈ 19.6 µg/mL). Also, the MFC in assay [1] came to 2 µM (≈ 0.613 µg/mL); in assay [2] it was 2 µM (≈ 0.613 µg/mL); in assay [3] it was 1 µM (≈ 0.306 µg/mL); in assay [4] it was 64 µM (≈ 19.6 µg/mL).
